In patent publication US20020152499A1, “Gene encoding a protein involved in the signal transduction cascade leading to systemic acquired resistance in plants” (priority 1996, published 2002):

Columns and labels:
PR-1, PR-2 and PR-5 = assay: Northern analysis of SAR gene expression after chemical treatment
Description: Plants were then treated with H2O, 5 mM SA, 300 FM BTH, or 300 FM INA. Chemicals were applied as a fine mist to completely cover the seedlings using a chromister. Water control plants were returned to the growing phytotron while the chemically treated plants were held in a separate but identical phytotron. At 3 days post-chemical application, water and chemically treated plants were inoculated with the compatible Emwa isolate. Noco inoculation was conducted on water treated plants only. Following inoculation, plants were covered with a clear plastic dome to maintain high humidity required for successful P. parasitica infection and placed in a growing chamber with 19° C. day/17° C. night temperatures and 8 h light/16 h dark cycles. RNA was extracted from plants 3 days after either water or chemical treatment, or 14 days after inoculation with the compatible P. parasitica Emwa isolate. The RNA was size-fractionated by agarose gel electrophoresis and transferred to GeneScreenPlus membranes (DuPont).
In FIG. 1, replicate blots were hybridized to Arabidopsis gene probes PR-1, PR-2 and PR-5 as described in Uknes et al. (1992).

NIM1 gene = assay: RNA gel blot of NIM1 (gene region 2) mRNA after chemical treatment; settings: wild-type Ws plants (FIG. 7)
Excerpt: To ascertain which gene region contained the NIM1 gene, gel blots containing RNA isolated from leaf tissue of Ws-0 and the different nim1 mutants following either water or chemical treatment were probed with DNA derived from each of the four gene regions. In these experiments, care was taken to label probes to high specific activity and autoradiographs were exposed for more than 1 week.
Identical Northern blots were made from RNA samples isolated from water-, SA-, BTH- and INA-treated Ws and nim1 lines as previously described in Delaney, et al. (1995). These blots were hybridized with PCR products generated from the four gene regions identified in the 9.9 kb NIM1 gene region (SEQ ID NO:1).
The same RNA samples produced in the induction studies (FIG. 3) were also probed with the NIM1 gene using a full4ength cDNA clone as a probe.

[1] = test system: Peronospora parasitica isolate Emwa; assay: Percent of plants showing P. parasitica Emwa surface conidia after chemical pretreatment; settings: for Percent Infection - Emwa: P. parasitica inoculated 3 days after chemical treatment
Description: Mutant plants were treated with SA, INA, and BTH and then assayed for resistance to Peronospora parasitica.P. parasitica isolate ‘Emwa’ is a Pp. isolate that is compatible in the Ws ecotype.
(§1) Wild-type seeds and seeds for each of the nim1 alleles (nim1-1,-2,-3,-4,-5,-6) were sown onto MetroMix 300 growing media, covered with a transparent plastic dome, and placed at 4° C. in the dark for 3 days. After 3 days of 4° C. treatment, the plants were moved to a phytotron for 2 weeks. By approximately 2 weeks post-planting, germinated seedlings had produced 4 true leaves. Plants were then treated with H2O, 5 mM SA, 300 μM BTH, or 300 μM INA. Chemicals were applied as a fine mist to completely cover the seedlings using a chromnister. Water control plants were returned to the growing phytotron while the chemically treated plants were held in a separate but identical phytotron. At 3 days post-chemical application, water and chemically treated plants were inoculated with the compatible ‘Emwa’ isolate. ‘Noco’ inoculation was conducted on water treated plants only. Following inoculation, plants were covered with a clear plastic dome to maintain high humidity required for successful P. parasitica infection and placed in a growing chamber with 19° C. day/17° C. night temperatures and 8 h light/16 h dark cycles.
To determine the relative strength of the different nim1 alleles, each mutant was microscopically analyzed at various timepoints after inoculation for the growth of P. parasitica under normal growth conditions and following pretreatment with either SA, INA, or BTH. Under magnification, sporulation of the fungus could be observed at very early stages of disease development. The percentage of plants/pot showing sporulation at 5d, 6d, 7d, 1 id and 14d after inoculation was determined and the density of sporulation was also recorded.
P. parasitica was inoculated onto the plants three days after water or chemical treatment.

[2] = test system: Peronospora parasitica isolate Emwa; assay: Infection severity rating after inoculation with Peronospora parasitica (Emwa) following chemical pretreatment
Description: as §1
WsWT indicates the Ws wild type parent line in which the nim1 alleles were found. The various nim1 alleles are indicated in the table and the NahG plant is indicated also.
NahG plants therefore serve as a kind of universal susceptibility control.

## CSC(=O)c1cccc2nnsc12 [BTH]
PR-1, PR-2 and PR-5; nim1 plants, RNA gel blots FIGS. 1-3
  SAR and SAR gene expression (PR-1, PR-2, PR-5): induce neither SAR nor SAR gene expression
PR-1, PR-2 and PR-5; wild-type plants, RNA 3 days after chemical treatment (FIG. 3)
  PR-1 mRNA accumulation: accumulates to high levels
NIM1 gene
  NIM1 (gene region 2) mRNA: induced
[1]; Ws WT plants, Day 0
  Percent Infection - Emwa: 0%
[1]; Ws WT plants, Day 5
  Percent Infection - Emwa: 0%
[1]; Ws WT plants, Day 6
  Percent Infection - Emwa: 0%
[1]; Ws WT plants, Day 7
  Percent Infection - Emwa: 0%
[1]; Ws WT plants, Day 11
  Percent Infection - Emwa: 0%
[1]; nim1-1 plants, Day 0
  Percent Infection - Emwa: 0%
[1]; nim1-1 plants, Day 5
  Percent Infection - Emwa: 1%
[1]; nim1-1 plants, Day 6
  Percent Infection - Emwa: 5%
[1]; nim1-1 plants, Day 7
  Percent Infection - Emwa: 30%
[1]; nim1-1 plants, Day 11
  Percent Infection - Emwa: 100%
[1]; nim1-2 plants, Day 0
  Percent Infection - Emwa: 0%
[1]; nim1-2 plants, Day 5
  Percent Infection - Emwa: 0%
[1]; nim1-2 plants, Day 6
  Percent Infection - Emwa: 25%
[1]; nim1-2 plants, Day 7
  Percent Infection - Emwa: 90%
[1]; nim1-2 plants, Day 11
  Percent Infection - Emwa: 100%
[1]; nim1-3 plants, Day 0
  Percent Infection - Emwa: 0%
[1]; nim1-3 plants, Day 5
  Percent Infection - Emwa: 15%
[1]; nim1-3 plants, Day 6
  Percent Infection - Emwa: 70%
[1]; nim1-3 plants, Day 7
  Percent Infection - Emwa: 100%
[1]; nim1-3 plants, Day 11
  Percent Infection - Emwa: 100%
[1]; nim1-4 plants, Day 0
  Percent Infection - Emwa: 0%
[1]; nim1-4 plants, Day 5
  Percent Infection - Emwa: 80%
[1]; nim1-4 plants, Day 6
  Percent Infection - Emwa: 100%
[1]; nim1-4 plants, Day 7
  Percent Infection - Emwa: 100%
[1]; nim1-4 plants, Day 11
  Percent Infection - Emwa: 100%
[1]; nim1-5 plants, Day 0
  Percent Infection - Emwa: 0%
[1]; nim1-5 plants, Day 5
  Percent Infection - Emwa: 0%
[1]; nim1-5 plants, Day 6
  Percent Infection - Emwa: 1%
[1]; nim1-5 plants, Day 7
  Percent Infection - Emwa: 1%
[1]; nim1-5 plants, Day 11
  Percent Infection - Emwa: 10%
[1]; nim1-6 plants, Day 0
  Percent Infection - Emwa: 0%
[1]; nim1-6 plants, Day 5
  Percent Infection - Emwa: 1%
[1]; nim1-6 plants, Day 6
  Percent Infection - Emwa: 90%
[1]; nim1-6 plants, Day 7
  Percent Infection - Emwa: 100%
[1]; nim1-6 plants, Day 11
  Percent Infection - Emwa: 100%
[1]; nim1 plants
  activity in nim1 plants: inactive
[2]; NahG plants
  response of plants to the inducer (disease resistance): very good response
[2]; NahG plants, Day 7 after inoculation
  Infection Severity - Emwa: 0
[2]; NahG plants, Day 11 after inoculation
  Infection Severity - Emwa: 0
[2]; Ws Wt plants, Day 7 after inoculation
  Infection Severity - Emwa: 0
[2]; Ws Wt plants, Day 11 after inoculation
  Infection Severity - Emwa: 0
[2]; Ws plants
  induced resistance to Emwa: very good resistance
[2]; nim1-1 plants, Day 7 after inoculation
  Infection Severity - Emwa: 2.5
[2]; nim1-1 plants, Day 11 after inoculation
  Infection Severity - Emwa: 4
[2]; nim1-2 plants, Day 7 after inoculation
  Infection Severity - Emwa: 3.5
[2]; nim1-2 plants, Day 11 after inoculation
  Infection Severity - Emwa: 4
[2]; nim1-3 plants, Day 7 after inoculation
  Infection Severity - Emwa: 3
[2]; nim1-3 plants, Day 11 after inoculation
  Infection Severity - Emwa: 3.5
[2]; nim1-4 plants, Day 7 after inoculation
  Infection Severity - Emwa: 4
[2]; nim1-4 plants, Day 11 after inoculation
  Infection Severity - Emwa: 5
[2]; nim1-5 plants, Day 7 after inoculation
  Infection Severity - Emwa: 1.5
[2]; nim1-5 plants, Day 11 after inoculation
  Infection Severity - Emwa: 2
[2]; nim1-6 plants, Day 7 after inoculation
  Infection Severity - Emwa: 3
[2]; nim1-6 plants, Day 11 after inoculation
  Infection Severity - Emwa: 4
